Legend:
Type in all cases: biochemical
[1] = biological target: Pim-3 (Homo sapiens (Human), UniProt Q86V86); assay: Pim-3 kinase assay; details: 1 mM ATP; read-out: Pim3 IC50
Summary of the method: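 AlphaScreen-type assay: […] Pim-3 phosphorylates 0.05 μM biotin-BAD peptide with 1 mM ATP, 1 h at 25 °C, pH 7.5 Tris buffer with MgCl2 and DTT. EDTA stop with phospho-BAD (Ser112) antibody and donor/acceptor beads, 1 h dark incubation before reading.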

[2] = biological target: Pim-1 (Homo sapiens (Human), UniProt P11309); assay: Pim-1 kinase assay; details: 1 mM ATP; read-out: Pim1 IC50
Pim-1, sequence (P11309 whole entry): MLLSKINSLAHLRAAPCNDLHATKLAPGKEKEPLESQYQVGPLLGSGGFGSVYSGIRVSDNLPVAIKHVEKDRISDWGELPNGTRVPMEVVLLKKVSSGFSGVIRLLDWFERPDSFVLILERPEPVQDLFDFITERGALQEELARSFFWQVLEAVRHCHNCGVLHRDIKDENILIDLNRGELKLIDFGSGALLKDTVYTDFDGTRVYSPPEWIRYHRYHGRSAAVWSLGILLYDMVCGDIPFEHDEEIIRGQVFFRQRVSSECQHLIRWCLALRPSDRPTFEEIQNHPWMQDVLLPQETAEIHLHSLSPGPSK
Method: Supplementation of the STOP buffer with beads and stopping the reactions were done under reduced light. Prior to the stopping reactions STOP buffer with beads was pre-incubated for 1 h in the dark at room temperature. After stopping the reactions, plates were incubated for 1 h in the dark at room temperature before reading on a PHERAstar FS plate reader (BMG Labtech) under reduced light.

[3] = biological target: Pim-2 (Homo sapiens (Human), UniProt Q9P1W9); assay: Pim-2 kinase assay; details: 1 mM ATP; read-out: Pim2 IC50
Pim-2, sequence (Q9P1W9 whole entry): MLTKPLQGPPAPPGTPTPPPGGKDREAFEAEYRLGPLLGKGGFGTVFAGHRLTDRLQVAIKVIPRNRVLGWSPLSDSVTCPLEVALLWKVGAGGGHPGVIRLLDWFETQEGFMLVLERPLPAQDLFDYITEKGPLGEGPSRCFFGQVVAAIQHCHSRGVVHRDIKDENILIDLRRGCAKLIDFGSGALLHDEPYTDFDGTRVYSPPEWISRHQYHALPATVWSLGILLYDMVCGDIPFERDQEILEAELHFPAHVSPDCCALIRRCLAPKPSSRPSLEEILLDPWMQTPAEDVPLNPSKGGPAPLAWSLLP

Measured: IC50

COc1ccc(F)c(-c2nc(C(=O)Nc3cnc4c(c3N3C[C@H](C)C[C@H](N)C3)CCO4)ccc2F)c1F [Example 73, N-{4-[(3S,5R)-3-Amino-5-methylpiperidin-1-yl]-2,3-dihydrofuro[2,3-b]pyridin-5-yl}-6-(2,6-difluoro-3-methoxyphenyl)-5-fluoropyridine-2-carboxamide]
≤ 100 nM: all assays above

COc1ccc(F)c(-c2nc(C(=O)Nc3cnc4c(c3N3C[C@@H](N)[C@H](O)[C@@H](C)C3)CCO4)ccc2F)c1F [Example 74, N-{4-[(3R,4R,5S)-3-Amino-4-hydroxy-5-methylpiperidin-1-yl]-2,3-dihydrofuro[2,3-b]pyridin-5-yl}-6-(2,6-difluoro-3-methoxyphenyl)-5-fluoropyridine-2-carboxamide]
≤ 100 nM: all assays above

C[C@H]1CN(c2c(NC(=O)c3nc(-c4c(F)cccc4F)sc3N)cnc3c2CCO3)C[C@@H](N)[C@@]1(C)O [Example 75, 5-Amino-N-{4-[(3R,4S,5S)-3-amino-4-hydroxy-4,5-dimethylpiperidin-1-yl]-2,3-dihydrofuro[2,3-b]pyridin-5-yl}-2-(2,6-difluorophenyl)-1,3-thiazole-4-carboxamide]
≤ 100 nM: all assays above

C[C@H]1CN(c2c(NC(=O)c3nc(-c4c(F)cccc4F)sc3N)cnc3c2CCO3)C[C@@H](N)[C@]1(C)O [Example 76, 5-Amino-N-{4-[(3R,4R,5S)-3-amino-4-hydroxy-4,5-dimethylpiperidin-1-yl]-2,3-dihydrofuro[2,3-b]pyridin-5-yl}-2-(2,6-difluorophenyl)-1,3-thiazole-4-carboxamide]
≤ 100 nM: all assays above

Source: patent publication US10265307B2, “Thiazolecarboxamides and pyridinecarboxamide compounds useful as Pim kinase inhibitors” (Incyte Corporation, priority 2013, dated 2019)
